ChEMBL document CHEMBL1212732, “Conformational inhibition of the hepatitis C virus internal ribosome entry site RNA” (Nat Chem Biol, 2009)
Activity calls are given as the source filed them. The rule behind the calls is not given here.

Key:
[1] = tested on: Internal ribosome entry site (IRES); assay: Binding affinity to HCV 2AP54-labelled IRES subdomain 2a RNA in presence of Mg2+ by FRET assay; assay type: nucleic-acid assay; conditions: Hepacivirus hominis
[2] = biological target: Internal ribosome entry site (IRES); assay: Binding affinity to HCV 2AP54-labelled IRES subdomain 2a RNA in presence of 0.3 mM Mg2+ by FRET assay; assay type: nucleic-acid assay, Hepacivirus hominis
[3] = biological target: Internal ribosome entry site (IRES); assay: Binding affinity to HCV 2AP54-labelled IRES subdomain 2a RNA in presence of 1 mM Mg2+ by FRET assay; assay type: nucleic-acid assay, Hepacivirus hominis
[4] = tested on: Internal ribosome entry site (IRES); assay: Binding affinity to HCV 2AP54-labelled IRES subdomain 2a RNA in presence of Mg2+ by FRET assay in presence of eukaryotic tRNA; assay type: nucleic-acid assay; conditions: Hepacivirus hominis
[5] = tested on: Internal ribosome entry site (IRES); assay: Binding affinity to HCV Cy3/Cy5-labelled IRES subdomain 2a RNA by FRET assay; assay type: nucleic-acid assay; conditions: Hepacivirus hominis
[6] = biological target: Internal ribosome entry site (IRES); assay: Binding affinity to HCV 2AP54-labelled IRES subdomain 2a RNA A54G mutant in presence of 1 mM Mg2+ by FRET assay; assay type: nucleic-acid assay, Hepacivirus hominis
[7] = biological target: Internal ribosome entry site (IRES); assay: Binding affinity to HCV 2AP54-labelled IRES subdomain 2a RNA C55U mutant in presence of 1 mM Mg2+ by FRET assay; assay type: nucleic-acid assay, Hepacivirus hominis
[8] = biological target: Internal ribosome entry site (IRES); assay: Binding affinity to HCV 2AP54-labelled IRES subdomain 2a RNA C55A mutant in presence of 1 mM Mg2+ by FRET assay; assay type: nucleic-acid assay, Hepacivirus hominis
[9] = biological target: Internal ribosome entry site (IRES); assay: Binding affinity to HCV 2AP54-labelled IRES subdomain 2a RNA U56G/A57U mutant in presence of 1 mM Mg2+ by FRET assay; assay type: nucleic-acid assay, Hepacivirus hominis
[10] = biological target: Internal ribosome entry site (IRES); assay: Binding affinity to HCV 2AP54-labelled IRES subdomain 2a RNA A57U mutant in presence of 1 mM Mg2+ by FRET assay; assay type: nucleic-acid assay, Hepacivirus hominis
[11] = biological target: Internal ribosome entry site (IRES); assay: Binding affinity to HCV 2AP54-labelled IRES subdomain 2a RNA C58A mutant in presence of 1 mM Mg2+ by FRET assay; assay type: nucleic-acid assay, Hepacivirus hominis
Hepatitis C virus [12] = assay: Inhibition of HCV 1b replicon translation in human HuH7 cells transfected with BM4-5 FEO HCV replicon RNA after 4 hrs by luciferase reporter assay; assay type: functional, organism-based, Hepacivirus hominis; conditions: genotype 1b, Huh-7, 4 h
Hepatitis C virus [13] = assay: Inhibition of HCV 1b replicon translation in human HuH7 cells transfected with BM4-5 FEO HCV replicon RNA after 8 hrs by luciferase reporter assay; assay type: functional, organism-based, Hepacivirus hominis; conditions: genotype 1b, Huh-7, 8 h
Hepatitis C virus [14] = assay: Inhibition of HCV 1b replicon translation in human HuH7 cells transfected with BM4-5 FEO HCV replicon RNA A57U mutant by luciferase reporter assay relaitv to wild type; assay type: functional, Hepacivirus hominis, genotype 1b, Huh-7
Hepatitis C virus [15] = assay: Inhibition of HCV 1b replicon translation in human HuH7 cells transfected with BM4-5 FEO HCV replicon RNA after 48 hrs by luciferase reporter assay; assay type: functional, organism-based, Hepacivirus hominis; conditions: genotype 1b, Huh-7, 48 h
[16] = Cytotoxicity against human HuH7 cells at 0.25-25 uM after 48 hrs by colorimetric viability assay; assay type: cell-based; conditions: huh-7, 48 h
Hepacivirus hominis [17] = assay: Inhibition of HCV NS5B RNA dependent RNA polymerase after 24 mins
Hepacivirus hominis [18] = assay: Inhibition of HCV NS5B RNA dependent RNA polymerase after 60 mins
[19] = biological target: Internal ribosome entry site (IRES); assay: Binding affinity to HCV 2AP54-labelled IRES subdomain 2a RNA by mass spectrometry; assay type: nucleic-acid assay, Hepacivirus hominis

Row | Compound | Activity [1] | EC50 [2] | EC50 [3] | Activity [4] | Activity [5] | EC50 [6] | EC50 [7] | EC50 [8] | EC50 [9] | EC50 [10] | EC50 [11] | IC50 (Hepatitis C virus [12]) | IC50 (Hepatitis C virus [13]) | inhibition (INH) (Hepatitis C virus [14]) | IC50 (Hepatitis C virus [15]) | Activity [16] | inhibition (Hepacivirus hominis [17]) | inhibition (Hepacivirus hominis [18]) | Kd [19]
1 | CN(C)CC1COc2ccc3nc4n(c3c2C1)CC(CN(C)C)CN4 (stereo not given) | Dose-dependent effect | 0.26 µM | 0.6 µM | Active | inactive | 0.49 µM | 0.32 µM | 0.65 µM | 4.1 µM | 4.2 µM | 0.76 µM | 4 µM | 9.5 µM | 15% | 2 µM | Toxic | Active | Active | 0.72 µM
2 | CN(C)CC(CO)Cn1c(N)nc2ccc3c(c21)CC(CO)CO3 (stereo not given) |  |  | 90 µM |  |  |  |  |  |  |  |  |  |  |  |  |  |  |  | 
